Results reported in ChEMBL document CHEMBL3885861, “Open TG-GATES”.

Species: Rattus norvegicus
Experiment: Open TG-GATES - Regimen: Single
Format: toxicity, organism-based, Sprague-Dawley
Parameters: regimen Single, gender Male, age 6 weeks
Conditions: in vivo, po, 100 mg/kg, route gavage, dose level Middle; for APTT / Bas / Eos / Fbg / Hb / Ht / Lym / MCH / MCHC / MCV / Mono / Neu / PT / Plat / RBC / Ret / WBC: tissue Blood; for KIDNEY_TOTAL: tissue Kidney; for LIVER: tissue Liver; for A/G / ALP / ALT / AST / BUN / CRE / Ca / Cl / DBIL / GLC / IP / K / LDH / Na / PL / RALB / TBIL / TC / TG / TP / gamma-GTP: tissue Plasma

CN(CCOc1ccc(CC2SC(=O)NC2=O)cc1)c1ccccn1.O=C(O)/C=C\C(=O)O (centres undefined) [ROSIGLITAZONE MALEATE]
TERMINAL_BW (3 h): 205.4 g | APTT (3 h): 16.2 s | Bas (3 h): 0% | Eos (3 h): 1% | Fbg (3 h): 217.8 mg/dL | Hb (3 h): 13 g/dL | Ht (3 h): 39.5% | Lym (3 h): 77.2% | MCH (3 h): 21.3 pg | MCHC (3 h): 32.8% | MCV (3 h): 65 fL | Mono (3 h): 7.8% | Neu (3 h): 14.4% | PT (3 h): 12.2 s | Plat (3 h): 119.4 x10_4/uL | RBC (3 h): 607.6 x10_4/ul | Ret (3 h): 8.6% | WBC (3 h): 105 x10_2/uL | KIDNEY_TOTAL (3 h): 0.8 g | LIVER (3 h): 9.5 g | A/G (3 h): 2.2 | ALP (3 h): 1374 IU/L | ALT (3 h): 36.6 IU/L | AST (3 h): 74.6 IU/L | BUN (3 h): 13.4 mg/dL | CRE (3 h): 0.4 mg/dL | Ca (3 h): 11.6 mg/dL | Cl (3 h): 104 meq/L | DBIL (3 h): 0.014 mg/dL | GLC (3 h): 189.2 mg/dL | IP (3 h): 8.9 mg/dL | K (3 h): 4.4 meq/L | LDH (3 h): 107.8 IU/L | Na (3 h): 139.6 meq/L | PL (3 h): 133.2 mg/dL | RALB (3 h): 3.6 g/dL | TBIL (3 h): 0.046 mg/dL | TC (3 h): 78.8 mg/dL | TG (3 h): 75.6 mg/dL | TP (3 h): 5.3 g/dL | gamma-GTP (3 h): 0.8 IU/L | TERMINAL_BW (6 h): 206.8 g | APTT (6 h): 16.7 s | Bas (6 h): 0% | Eos (6 h): 1% | Fbg (6 h): 221.8 mg/dL | Hb (6 h): 12.4 g/dL | Ht (6 h): 37.5% | Lym (6 h): 67.4% | MCH (6 h): 20.7 pg | MCHC (6 h): 33.1% | MCV (6 h): 62.5 fL | Mono (6 h): 9.8% | Neu (6 h): 22% | PT (6 h): 12.4 s | Plat (6 h): 124.2 x10_4/uL | RBC (6 h): 600 x10_4/ul | Ret (6 h): 8.9% | WBC (6 h): 105.2 x10_2/uL | KIDNEY_TOTAL (6 h): 0.8 g | LIVER (6 h): 9 g | A/G (6 h): 2.3 | ALP (6 h): 1392.2 IU/L | ALT (6 h): 33.6 IU/L | AST (6 h): 64 IU/L | BUN (6 h): 10.2 mg/dL | CRE (6 h): 0.4 mg/dL | Ca (6 h): 11.1 mg/dL | Cl (6 h): 104.2 meq/L | DBIL (6 h): 0.016 mg/dL | GLC (6 h): 179.2 mg/dL | IP (6 h): 10 mg/dL | K (6 h): 4.5 meq/L | LDH (6 h): 82.2 IU/L | Na (6 h): 138.4 meq/L | PL (6 h): 127.8 mg/dL | RALB (6 h): 3.6 g/dL | TBIL (6 h): 0.042 mg/dL | TC (6 h): 73 mg/dL | TG (6 h): 64.2 mg/dL | TP (6 h): 5.2 g/dL | gamma-GTP (6 h): 1 IU/L | TERMINAL_BW (9 h): 198.2 g | APTT (9 h): 16.2 s | Bas (9 h): 0% | Eos (9 h): 1% | Fbg (9 h): 217 mg/dL | Hb (9 h): 12.7 g/dL | Ht (9 h): 38.5% | Lym (9 h): 75.6% | MCH (9 h): 22.1 pg | MCHC (9 h): 32.9% | MCV (9 h): 67.1 fL | Mono (9 h): 4.8% | Neu (9 h): 19% | PT (9 h): 12.3 s | Plat (9 h): 118.4 x10_4/uL | RBC (9 h): 574.2 x10_4/ul | Ret (9 h): 8.9% | WBC (9 h): 85 x10_2/uL | KIDNEY_TOTAL (9 h): 0.8 g | LIVER (9 h): 8.3 g | A/G (9 h): 2.5 | ALP (9 h): 1125.2 IU/L | ALT (9 h): 28 IU/L | AST (9 h): 62 IU/L | BUN (9 h): 11.2 mg/dL | CRE (9 h): 0.4 mg/dL | Ca (9 h): 11.7 mg/dL | Cl (9 h): 103.8 meq/L | DBIL (9 h): 0.014 mg/dL | GLC (9 h): 190.6 mg/dL | IP (9 h): 11.3 mg/dL | K (9 h): 4.3 meq/L | LDH (9 h): 120.2 IU/L | Na (9 h): 140.4 meq/L | PL (9 h): 122.2 mg/dL | RALB (9 h): 3.9 g/dL | TBIL (9 h): 0.046 mg/dL | TC (9 h): 70.2 mg/dL | TG (9 h): 49.6 mg/dL | TP (9 h): 5.5 g/dL | gamma-GTP (9 h): 0.6 IU/L | TERMINAL_BW (24 h): 224.2 g | APTT (24 h): 16.3 s | Bas (24 h): 0% | Eos (24 h): 0.8% | Fbg (24 h): 213.2 mg/dL | Hb (24 h): 12.4 g/dL | Ht (24 h): 38% | Lym (24 h): 68.8% | MCH (24 h): 20.9 pg | MCHC (24 h): 32.7% | MCV (24 h): 63.8 fL | Mono (24 h): 9.4% | Neu (24 h): 21.2% | PT (24 h): 11.5 s | Plat (24 h): 120.6 x10_4/uL | RBC (24 h): 596.2 x10_4/ul | Ret (24 h): 7.7% | WBC (24 h): 74.8 x10_2/uL | KIDNEY_TOTAL (24 h): 0.6 g | LIVER (24 h): 11.2 g | A/G (24 h): 2.7 | ALP (24 h): 1341.6 IU/L | ALT (24 h): 40.2 IU/L | AST (24 h): 71.2 IU/L | BUN (24 h): 16.6 mg/dL | CRE (24 h): 0.4 mg/dL | Ca (24 h): 11.3 mg/dL | Cl (24 h): 104.4 meq/L | DBIL (24 h): 0.016 mg/dL | GLC (24 h): 187.6 mg/dL | IP (24 h): 7.8 mg/dL | K (24 h): 4.5 meq/L | LDH (24 h): 123.8 IU/L | Na (24 h): 140 meq/L | PL (24 h): 161.6 mg/dL | RALB (24 h): 3.8 g/dL | TBIL (24 h): 0.032 mg/dL | TC (24 h): 90.6 mg/dL | TG (24 h): 127.2 mg/dL | TP (24 h): 5.3 g/dL | gamma-GTP (24 h): 1 IU/L
